For 24 molecules, IC50 results are on record in patent US10626112B2, “Heterocyclic sulfonamide derivative and medicine comprising same” (EA PHARMA CO., LTD., priority 2014, dated 2020).

As usually defined, the IC50 is the concentration at which inhibition is half-maximal.

The experiment has as its target human TRPA1 (Homo sapiens (Human), UniProt O75762). Put plainly: Measurement of TRPA1 antagonist activity (1): intracellular calcium increase. It counts as cell-based. To be noted: 293T cells transfected with human TRPA1 expression plasmid; allylisothiocyanate 20 μM stimulation; intracellular calcium fluorescence; read-out: hTRPA1 IC50. From the text:
Measurement of TRPA1 Antagonist Activity (1)
Human TRPA1 Expression Plasmid
As cDNA encoding human TRPA1 (GenBank accession No. […]), a commercially available product was purchased (manufactured by Kazusa DNA Research Institute, clone No.: pFN21AB7348, item No.: FHC07217). Using this as a template, full-length human TRPA1 gene was amplified using the primer sequences shown below, by reaction using DNA polymerase (manufactured by Stratagene, trade name: PfuUltra High-Fidelity DNA Polymerase).
A recognition site (underlined) of restriction enzyme HindIII was added to the 5′ side, and XbaI site (underlined) was added to the 3′ side, and GTT of the template sequence was changed to termination codon TAG (bold). The obtained double stranded DNA was enzyme-digested with HindIII and XbaI, and introduced into the multicloning site of expression plasmid pcDNA3.1/zeo(+) (manufactured by Invitrogen) to construct a human TRPA1 expression plasmid.
Human embryonic kidney-derived 293T cells were cultured in Dulbecco's Modified Eagle Medium containing 10% fetal bovine serum, 10 unit penicillin, and 10 μg streptomycin, plated on a petri dish having a diameter of 10 cm at 3×10^6 cells, and cultured for 24 hr in a CO2 incubator. A reduced serum medium (manufactured by Invitrogen, trade name: OPTI-MEM, 600 μL), a gene transfer reagent (manufactured by Mirus Bio, trade name: Mirus TransIT-293, 18 μL), and human TRPA1 expression plasmid (6 μg) were mixed, the total amount of the mixture was added to the cells on the petri dish to allow for gene transfer. The cells were recovered about for 8 hr later, plated on a poly-D-lysine coated 384 well black/clear bottom plate at 12,000 cells/well, and cultured overnight.
Measurement of Intracellular Calcium Increase
The 384 well plate was recovered, and the medium was removed. A calcium-bonded fluorescent indicator (manufactured by Molecular Device, trade name: Calcium4 Assay Kit, 38 μL) dissolved in assay buffer (1×HBSS, 20 mM HEPES, pH 7.2) was added, and the cells were stained in a CO2 incubator for 1 hr. The cells were taken out at room temperature, stood for not less than 15 min, a test substance (10 μL) was added by a platereader FDSS7000 (Hamamatsu Photonics K.K.) equipped with a 384ch dispenser. After 10 min, allylisothiocyanate (12 μL) was further added at a final concentration of 20 μM, and changes in the relative fluorescence intensity after addition of allylisothiocyanate were measured for 5 min.
Test Substance Preparation
The test substance was dissolved in dimethyl sulfoxide and serially diluted with an assay buffer containing 0.1% bovine serum albumin (1×HBSS, 20 mM HEPES, pH 7.2) to a 4.8-fold concentration of the evaluation concentration. Allylisothiocyanate, which is a known TRPA1 activator, was dissolved in dimethyl sulfoxide to 100 mM, and further diluted 5-fold (100 μM) of the final concentration, like the test substance.
Calculation of Antagonist Activity
Under the test substance-free conditions, the maximum variation range of the fluorescence intensity before and after allylisothiocyanate stimulation was defined to be 100% activity rate, and the variation range before and after buffer stimulation was defined as 0% activity rate. The activity rate on addition of the test substance was determined, and the numerical value obtained by subtracting the activity rate from 100 was defined to be an inhibitory rate. IC50, which is the concentration of the test substance necessary for reaching the 50% inhibitory rate, was calculated from the sigmoid approximate curve by a spreadsheet software Excel-Fit.
For orientation: A change in cytosolic calcium serves as a functional read-out for many receptors and channels.

Chain of human TRPA1 (O75762 whole entry): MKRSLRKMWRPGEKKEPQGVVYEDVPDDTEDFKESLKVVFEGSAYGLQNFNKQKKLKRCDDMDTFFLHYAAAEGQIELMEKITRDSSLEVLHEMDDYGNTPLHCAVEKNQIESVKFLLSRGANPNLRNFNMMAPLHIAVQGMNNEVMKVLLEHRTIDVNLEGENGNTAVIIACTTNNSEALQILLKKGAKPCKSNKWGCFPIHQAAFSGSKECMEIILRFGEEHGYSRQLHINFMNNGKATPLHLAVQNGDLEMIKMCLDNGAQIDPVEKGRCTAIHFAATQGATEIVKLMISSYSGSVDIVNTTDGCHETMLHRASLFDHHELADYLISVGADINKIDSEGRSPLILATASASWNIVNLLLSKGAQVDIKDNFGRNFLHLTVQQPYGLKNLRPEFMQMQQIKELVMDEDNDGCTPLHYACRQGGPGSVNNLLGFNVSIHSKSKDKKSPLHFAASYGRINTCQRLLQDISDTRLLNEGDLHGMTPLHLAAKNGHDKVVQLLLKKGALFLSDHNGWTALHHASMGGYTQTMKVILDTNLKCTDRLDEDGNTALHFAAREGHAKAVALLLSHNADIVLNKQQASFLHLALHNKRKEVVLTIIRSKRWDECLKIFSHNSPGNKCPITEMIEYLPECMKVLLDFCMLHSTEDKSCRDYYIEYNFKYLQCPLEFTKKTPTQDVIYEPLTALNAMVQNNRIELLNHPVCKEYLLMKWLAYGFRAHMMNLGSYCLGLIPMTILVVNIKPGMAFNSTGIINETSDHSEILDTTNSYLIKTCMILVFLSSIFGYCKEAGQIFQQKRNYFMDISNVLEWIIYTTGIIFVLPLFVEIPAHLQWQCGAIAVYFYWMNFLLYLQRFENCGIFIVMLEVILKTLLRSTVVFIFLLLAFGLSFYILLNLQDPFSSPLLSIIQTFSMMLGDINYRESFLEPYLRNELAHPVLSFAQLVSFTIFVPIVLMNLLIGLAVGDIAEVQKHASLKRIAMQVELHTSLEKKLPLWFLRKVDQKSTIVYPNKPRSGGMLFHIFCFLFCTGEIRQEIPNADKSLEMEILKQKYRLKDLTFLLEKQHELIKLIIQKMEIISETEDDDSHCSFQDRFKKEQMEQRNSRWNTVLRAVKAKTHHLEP

In the case of `O=C(NCc1cccc(OCc2ccc(C(F)(F)F)cc2)c1)[C@@H]1CC(F)(F)CN1S(=O)(=O)c1cc2ccccc2o1` [Example 47, (2S)-1-(benzofuran-2-ylsulfonyl)-4,4-difluoro-N-[[3-[[4-(trifluoromethyl)phenyl]methoxy]-phenyl]methyl]pyrrolidine-2-carboxamide], the IC50 amounted to 24 nM.
In the case of `O=C(NCc1cccc(OCc2ccc(C(F)(F)F)cc2)c1)[C@@H]1CCN1S(=O)(=O)c1cc2ccccc2o1` [Example 48, (2S)-1-(benzofuran-2-ylsulfonyl)-N-[[3-[[4-(trifluoromethyl)phenyl]methoxy]-phenyl]methyl]azetidine-2-carboxamide] it was 6.9 nM.
Turning to `C[C@H](NS(=O)(=O)c1cc2cc(F)ccc2o1)C(=O)NCc1cccc(OCc2ccc(C(F)(F)F)cc2)c1` [Example 49, (2S)-2-[(5-fluorobenzofuran-2-yl)sulfonylamino]-N-[[3-[[4-(trifluoromethyl)phenyl]methoxy]-phenyl]methyl]propanamide], the IC50 is 18 nM.
For `O=C(NCc1ccc(Oc2cccc(C(F)(F)F)c2)cc1)[C@@H]1CCCN1S(=O)(=O)c1cc2ccccc2o1` [Example 50, (2S)-1-(benzofuran-2-ylsulfonyl)-N-[[4-[3-(trifluoromethyl)phenoxy]phenyl]-methyl]pyrrolidine-2-carboxamide], the IC50 stood at 160 nM.
In the case of `O=C(NCc1ccc(Oc2cccc(C(F)(F)F)c2)cc1)[C@@H]1CCCN1S(=O)(=O)c1cc2cc(F)ccc2o1` [Example 51, (2S)-1-(5-fluorobenzofuran-2-yl)sulfonyl-N-[[4-[3-(trifluoromethyl)phenoxy]phenyl]-methyl]pyrrolidine-2-carboxamide] it was 19 nM; in that of `O=C(NCc1cccc(Oc2ccc(C(F)(F)F)cc2)c1)[C@@H]1CCCN1S(=O)(=O)c1cc2ccccc2o1` [Example 52, (2S)-1-(benzofuran-2-ylsulfonyl)-N-[[3-[4-(trifluoromethyl)phenoxy]phenyl]-methyl]pyrrolidine-2-carboxamide], 32 nM; in that of `O=C(NCc1cccc(Oc2ccc(C(F)(F)F)cc2)c1)[C@@H]1CCCN1S(=O)(=O)c1cc2cc(F)ccc2o1` [Example 53, (2S)-1-(5-fluorobenzofuran-2-yl)sulfonyl-N-[[3-[4-(trifluoromethyl)phenoxy]phenyl]-methyl]pyrrolidine-2-carboxamide], 2.7 nM.
To `O=C(NCc1cccc(Oc2ccc(C(F)(F)F)nc2)c1)[C@@H]1CCCN1S(=O)(=O)c1cc2ccccc2o1` [Example 54, (2S)-1-(benzofuran-2-ylsulfonyl)-N-[[3-[[6-(trifluoromethyl)-3-pyridyl]oxy]phenyl]methyl]-pyrrolidine-2-carboxamide] belongs 9 nM; to `O=C(NCc1ccc(Oc2ccnc(C(F)(F)F)c2)cc1)[C@@H]1CCCN1S(=O)(=O)c1cc2ccccc2o1` [Example 55, (2S)-1-(benzofuran-2-ylsulfonyl)-N-[[4-[[2-(trifluoromethyl)-4-pyridyl]oxy]phenyl]methyl]-pyrrolidine-2-carboxamide], 88 nM.
To `O=C(NCc1ccc(Oc2ccnc(C(F)(F)F)c2)cc1)[C@@H]1CCCN1S(=O)(=O)c1cc2cc(F)ccc2o1` [Example 56, (2S)-1-(5-fluorobenzofuran-2-yl)sulfonyl-N-[[4-[[2-(trifluoromethyl)-4-pyridyl]oxy]phenyl]methyl]-pyrrolidine-2-carboxamide] belongs 21 nM; to `O=C(NCc1cccc(SCc2ccccc2)c1)[C@@H]1CCCN1S(=O)(=O)c1cc2ccccc2o1` [Example 57, (2S)-1-(benzofuran-2-ylsulfonyl)-N-[(3-benzylsulfanylphenyl)methyl]pyrrolidine-2-carboxamide], 16 nM.
`O=C(NCc1ccc(COc2ccccc2)cc1)[C@@H]1CCCN1S(=O)(=O)c1cc2ccccc2o1` [Example 58, (2S)-1-(benzofuran-2-ylsulfonyl)-N-[[4-(phenoxymethyl)phenyl]methyl]-pyrrolidine-2-carboxamide]: the IC50 was 430 nM.
To `O=C(NCc1cccc(F)c1)[C@@H]1CCCN1S(=O)(=O)c1cc2ccccc2o1` [Example 59, (2S)-1-(benzofuran-2-ylsulfonyl)-N-[(3-fluorophenyl)methyl]pyrrolidine-2-carboxamide] belongs 540 nM; to `O=C(NCc1cccc(Cl)c1)[C@@H]1CCCN1S(=O)(=O)c1cc2ccccc2o1` [Example 60, (2S)-1-(benzofuran-2-ylsulfonyl)-N-[(3-chlorophenyl)methyl]pyrrolidine-2-carboxamide], 200 nM.
As to `O=C(NCc1cccc(C(F)(F)F)c1)[C@@H]1CCCN1S(=O)(=O)c1cc2ccccc2o1` [Example 61, (2S)-1-(benzofuran-2-ylsulfonyl)-N-[[3-(trifluoromethyl)phenyl]methyl]-pyrrolidine-2-carboxamide], the IC50 came out at 55 nM.
For the molecule `O=C(NCc1cccc(OC(F)(F)F)c1)[C@@H]1CCCN1S(=O)(=O)c1cc2ccccc2o1` [Example 62, (2S)-1-(benzofuran-2-ylsulfonyl)-N-[[3-(trifluoromethoxy)phenyl]methyl]-pyrrolidine-2-carboxamide], the half-inhibitory concentration (IC50) is 60 nM.
In the case of `O=C(NCc1ccc(OC(F)(F)F)cc1)[C@@H]1CCCN1S(=O)(=O)c1cc2ccccc2o1` [Example 63, (2S)-1-(benzofuran-2-ylsulfonyl)-N-[[4-(trifluoromethoxy)phenyl]methyl]-pyrrolidine-2-carboxamide] it was 60 nM; in that of `O=C(NCc1ccccc1OC(F)(F)F)[C@@H]1CCCN1S(=O)(=O)c1cc2ccccc2o1` [Example 64, (2S)-1-(benzofuran-2-ylsulfonyl)-N-[[2-(trifluoromethoxy)phenyl]methyl]-pyrrolidine-2-carboxamide], 100 nM.
To `O=C(NCc1cccc(OC(F)(F)F)c1)[C@@H]1CCCN1S(=O)(=O)c1cc2cc(F)ccc2o1` [Example 65, (2S)-1-(5-fluorobenzofuran-2-yl)sulfonyl-N-[[3-(trifluoromethoxy)phenyl]methyl]-pyrrolidine-2-carboxamide] belongs 15 nM; to `O=C(NCc1ccc(OC(F)(F)F)cc1)[C@@H]1CCCN1S(=O)(=O)c1cc2cc(F)ccc2o1` [Example 66, (2S)-1-(5-fluorobenzofuran-2-yl)sulfonyl-N-[[4-(trifluoromethoxy)phenyl]methyl]-pyrrolidine-2-carboxamide], 21 nM; to `O=C(NCc1cc(C(F)(F)F)ccc1Cl)[C@@H]1CCCN1S(=O)(=O)c1cc2ccccc2o1` [Example 67, (2S)-1-(benzofuran-2-ylsulfonyl)-N-[[2-chloro-5-(trifluoromethyl)phenyl]methyl]-pyrrolidine-2-carboxamide], 9.7 nM.
In the case of `COc1c(F)ccc(CNC(=O)[C@@H]2CCCN2S(=O)(=O)c2cc3ccccc3o2)c1F` [Example 68, (2S)-1-(benzofuran-2-ylsulfonyl)-N-[(2,4-difluoro-3-methoxy-phenyl)methyl]pyrrolidine-2-carboxamide] it was 390 nM; in that of `O=C(NCc1ccc(OC(F)(F)F)c(F)c1)[C@@H]1CCCN1S(=O)(=O)c1cc2cc(F)ccc2o1` [Example 69, (2S)-1-(5-fluorobenzofuran-2-yl)sulfonyl-N-[[3-fluoro-4-(trifluoromethoxy)phenyl]methyl]-pyrrolidine-2-carboxamide], 12 nM.
As for `O=C(NCc1ccc(F)c(OC(F)(F)F)c1)[C@@H]1CCCN1S(=O)(=O)c1cc2cc(F)ccc2o1` [Example 70, (2S)-1-(5-fluorobenzofuran-2-yl)sulfonyl-N-[[4-fluoro-3-(trifluoromethoxy)phenyl]methyl]-pyrrolidine-2-carboxamide], the half-maximal inhibitory concentration (IC50) was 11 nM.
